Results as given in US7012095B2, “Compounds for modulating cell proliferation” (HSC Research and Development Limited, priority 2000, dated 2006).

Tests used:
[1] = test system: variety of cancer cells (ALL, Philadelphia positive ALL, acute myeloid leukemia, myeloma, B-lineage lymphoma); test: Cancer cell growth in culture, summary statements; type: cell-based; settings: for efficacy against a variety of cell types (Acute Lymphoblastic Leukemia, Philadelphia positive Leukemia, Acute Myeloid Leukemia): in culture
[2] = test system: Philadelphia positive ALL, AML and lymphoma; test: In vitro / ex vivo purging assays, summary statements; type: cell-based
normal bone marrow cells [3] = test: In vitro purging of normal bone marrow; type: cell-based; settings: 50 μM, seven hours exposure, FIG. 21
Experimental: Heparinized bone marrow cells were layered over Percoll (1.077 gm/ml) (Pharmacia Fine Chemical, Piscataway N.J.) and centrifuged at 400 g at 4° C. for 10 minutes to remove neutrophils and RBCs.
For the purging process, the cells were resuspended at 1×10^6/ml in complete medium with or without 50 μM CR4. The cells were incubated with the CR4 for two and a half hours at 37° C., 5% CO2. At the end of this period the cells were thoroughly washed in medium to remove CR4 and then cultured at 2×10^5 cells/ml in IMDM (OCI, Toronto) containing 0.9% (vol/vol) methylcellulose supplemented with 30% FCS (Cansera Rexdale, ON.) or normal human plasma, a cocktail of cytokines containing G-CSF (10 ng/ml, Amgen), IL-3 (40 U/ml, Immunex), MGF (50 ng/ml, Immunex), Erythropoietin (2 u/ml, Epprex) or TPO (10 ng/ml, Amgen) and 5×10^−5M b-2-mercaptoethanol. The culture mixture was plated in 1 ml volumes into 35 mm petri dishes and incubated at 37° C., 5% CO2 in a humidified atmosphere. All cultures were evaluated at 14 days for the number of BFU-E colonies (defined as aggregates of more than 500 hemaglobinized cells or, 3 or more erythroid subcolonies), CFU-C colonies (defined as granulocyte or monocyte-macrophage cells or both) and CFU-GEMM colonies (a mixed population comprising of all elements).
For the purging process, the cells were resuspended at 1×10^6/ml in complete medium with or without 50 μM CR11. The cells were incubated with the tryrphostin for seven hours at 37° C., 5% CO2. At the end of this period the cells were thoroughly washed in medium to remove CR11 and then cultured at 2×10^5 cells/ml in IMDM (OCI, Toronto) containing 0.9% (vol/vol) methylcellulose supplementd with 30% FCS (Cansera Rexdale, ON.) or normal human plasma, a cocktail of cytokines containing G-CSF (10 ng/ml, Amgen), IL-3 (40 U/ml, Immunex), MGF (50 ng/ml, Immunex), Erythropoietin (2 u/ml, Epprex) or TPO (10 ng/ml, Amgen) and 5×10^−5M β-2-mercaptoethanol. The culture mixture was plated in 1 ml volumes into 35 mm petri dishes and incubated at 37° C., 5% CO2 in a humidified atmosphere. All cultures were evaluated at 14 days for the number of BFU-E colonies (defined as aggregates of more than 500 hemoglobinized cells or, 3 or more erythroid subcolonies), CFU-C colonies (defined as granulocyte or monocyte-macrophage cells or both) and CFU-GEMM colonies (a mixed population comprising of all elements).

normal bone marrow cells [4] = test: CFU-GEMM assay, normal bone marrow differentiation in culture; type: cell-based; settings: 14 days
Experimental: The CFU-GEMM assay was performed according to Fauser and Messner (1978, Blood, 52(6) 143–8) and Messner and Fausser (1980, Blut, 41(5) 327–33) with some variations. In brief, heparinized bone marrow cells were layered over Percoll (1.077 gm/ml) (Pharmacia Fine Chemical, Piscataway N.J.) and centrifuged at 400 g at 4° C. for 10 minutes to remove neutrophils and RBCs. The fractionated BM cells at 2×10^5 cells/ml were cultured in IMDM (OCI, Toronto) containing 0.9% (vol/vol) methylcellulose supplemented with 30% FCS (Cansera Rexdale, ON.) or normal human plasma, a cocktail of cytokines containing G-CSF (10 ng/ml, Amgen), IL-3 (40 U/ml, Immunex), MGF (50 ng/ml, Immunex), Erythropoietin (2 u/ml, Epprex) or TPO (10 ng/ml, Amgen), 5×10^−5M β-2-mercaptoethanol and the specified concentration of CR4. The culture mixture was plated in 1 ml volumes into 35 mm petri dishes and incubated at 37° C., 5% CO2 in a humidified atmosphere. All cultures were evaluated at 14 days for the number of BFU-E colonies (defined as aggregates of more than 500 hemoglobinized cells or, 3 or more erythroid subcolonies), CFU-GM colonies (defined as granulocyte or monocyte-macrophage cells or both), CFU-Meg colonies (comprising 4 or more megakaryocytes) and CFU-GEMM colonies (a mixed population comprising of all elements).
The CFU-GEMM assay was performed according to Fauser and Messner (1978, Blood, 52(6) 1243–8) and Messner and Fausser (1980, Blut, 41(5) 327–33) with some variations. In brief, heparinized bone marrow cells were layered over Percoll (1.077 gm/ml) (Pharmacia Fine Chemical, Piscataway N.J.) and centrifuged at 400 g at 4° C. for 10 minutes to remove neutrophils and RBCs. […] All cultures were evaluated at 14 days for the number of BFU-E colonies (defined as aggregates of more than 500 hemaglobinized cells or, 3 or more erythroid subcolonies) and CFU-C colonies (defined as granulocyte or monocyte-macrophage cells or both).
The CFU-GEMM assay was performed according to Fauser and Messner (1978, Blood, 52(6) 1243–8) and Messner and Fausser (1980, Blut, 41(5) 327–33) with some variations (British Journal of Haematology, 1992, 80, p40–48). […] All cultures were evaluated at 14 days for the number of BFU-E colonies (defined as aggregates of more than 500 hemoglobinized cells or, 3 or more erythroid subcolonies) and CFU-C colonies (defined as granulocyte or monocyte-macrophage cells or both).

Ph+ ALL cells = test: Killing of Philadelphia positive ALL cells in methylcellulose colony culture; type: cell-based, human
Experimental: (§1) Ph+ ALL cells were plated in 1 ml volumes, in the absence of exogenous growth factors, into 35 mm petri dishes (Nunc, Gibco) containing alpha MEM (Gibco) plus 10% FCS (Cansera Rexdale, ON.) in 0.9% (vol/vol) methylcellulose (Fluka, Switzerland) with the indicated concentrations of CR4. Cultures were set at 37° C., 5% CO2 in a humidified atmosphere. Colonies consisting of more than 20 cells were counted at 12 days or earlier using an inverted microscope.
as §1, with “ALL” for “Ph+ ALL”, “20%” for “10%”, “and” for “with”, “compound.” for “CR4.”
as §1, with “ALL” for “Ph+ ALL”, “20%” for “10%”, “and” for “with”, “CR24.” for “CR4.”, “9” for “12”, “microscope. […]” for “microscope.”

COc1cc(/C=C/C=C(\C#N)C(=O)NCc2ccc(O)c(O)c2)cc(OC)c1O [CR11, (E,E)-2-(3,4-Dihydroxybenzylamido)-3-(3,5-dimethoxy-4-hydroxystyryl)acrylonitrile]
efficacy against a variety of cell types (Acute Lymphoblastic Leukemia, Philadelphia positive Leukemia, Acute Myeloid Leukemia) [1]: highly effective | efficacy as ex vivo purging agents [2]: effective | inhibition of colony formation (normal bone marrow cells [3]; 14 days): did not result in any significant inhibition | BFU-E, CFU-GEMM and CFU-C colonies (normal bone marrow cells [3]): all normal

N#C/C(=C\C=C\c1ccccc1)C(=O)NCc1ccc(O)c(O)c1 [CR19, (E,E)-2-(3,4 Dihydroxybenzylamido)-3-styrylacrylonitrile]
efficacy against a variety of cell types (Acute Lymphoblastic Leukemia, Philadelphia positive Leukemia, Acute Myeloid Leukemia) [1]: highly effective | toxicity to cancer cells ([1]; low nanomolar doses, long term exposure): highly toxic | stimulatory effect on CFU-C colony formation (normal bone marrow cells [4]; 5 μM, FIG. 12): disappeared

N#C/C(=C\C=C\c1ccc(O)c(O)c1)C(=O)NCc1ccc(O)c(O)c1 [CR21, (E,E)-2-(3,4 Dihydroxybenzylamido)-3-(3,4-dihydroxystyryl)acrylonitrile]
concentration inhibiting cell growth (Ph+ ALL cells; Ph+ ALL, colonies at 12 days, FIG. 8): 5 µM | inhibition of BFU-E colony formation (normal bone marrow cells [4]; 20 μM, FIG. 13): inhibition

COc1cc(/C=C/C=C(\C#N)C(=O)NCCO)cc(OC)c1O [CR24, (E,E)-2-(β-Ethanolamido)-3-(3,5-dimethoxy-4-hydroxystyryl)acrylonitrile]
lowest concentration effective against Ph+ ALL cells (Ph+ ALL cells; colonies at 9 days, FIG. 10): 0.5 µM
